# Source: patent publication US10578622B2, “Sensors for detecting citrate, and method of detecting citrate using the same” (KOREA INSTITUTE OF SCIENCE AND TECHNOLOGY, priority 2017, dated 2020)
# Columns and labels:
# [1] = Job plot and reaction kinetics of the sensor including ARBD with citrate; conditions: reaction with citrate; plot of ln(Fmax−F)/Fmax vs time
# Description: To understand the bonding behavior in the reaction between the citrate detection sensor including ARBD and citrate, the reaction was investigated by using the Job plot.
# It can be seen from FIG. 3 that the maximum absorption intensity appears at a molar fraction of 0.5. Thus, it can be seen that a 1:1 complex is formed during the reaction of the citrate detection sensor with citrate. In this case, the reaction kinetics may be expressed by −kt=ln(Fmax−F)/Fmax (wherein k=rate constant, and ‘F’ and ‘Fmax’ represent the fluorescence intensity at time ‘t’). In addition, the maximum intensity reaction value accomplished after the completion of the reaction was calculated by using the plot of ‘ln(Fmax−F)/Fmax vs time’ as shown in FIG. 4.
# [2] = Photophysical properties of the citrate detection sensor in the presence and absence of citrate; format: physicochemical
# Experimental: Meanwhile, referring to FIG. 5, it can be seen that the citrate detection sensor not subjected to reaction with citrate expresses (blue) fluorescence while emitting weak fluorescence at 346 nm and 458 nm. On the contrary, when citrate is added to the citrate detection sensor including 2 μM of ARBD in the presence of 10 mM of 4-(2-hydroxyethyl)-1-piperazineethane sulfonic acid (HEPES) buffer (2 vol % DMSO) at pH 7.4, it can be seen that strong fluorescence appears at 548 nm together with a dramatic color change from blue to green. […] However, such a change in fluorescence is differentiated preferentially by visualization.
# PC3 cells = assay: Fluorescence expression of the citrate detection sensor in living PC3 cells; format: cell-based; conditions: ARBD 2 μM, cultured 30 minutes
# Experimental: The citrate detection sensor was evaluated in terms of its probe capability in living cells (PC3). […] Particularly, after the citrate sensor including ARBD (2 μM) was cultured for 30 minutes, the image in PC3 cells was observed.
# FIG. 9A to FIG. 9C show the fluorescence expressed generally when ARBD is introduced to prostate cancer cells. The image (FIG. 9C) of the expressed fluorescence (FIG. 9A) overlapped with the photo image (FIG. 9B) of the cell lines is shown between them. Then, green fluorescence expressed when adding citrate to the detection sensor inserted to the cell lines was observed. The image (FIG. 9D) after adding citrate, the photo image (FIG. 9E) thereof and their overlapped image (FIG. 9F) are shown in FIG. 9D to FIG. 9F.
# [3] = Selectivity and interference of the citrate detection sensor
# Experimental: The citrate detection sensor was used to test the selectivity and interference capability to the related similar species for the detection of the other biological carboxylate and citrate. For this test, 1 μM of citrate and 0.5 mM of the other ions were added ((1) sensor, (2) citrate, (3) fumarate, (4) benzoate, (5) glutamate, (6) succinate, (7) malonate, (8) oxalate, (9) acetate, (10) phosphate, (11) sulfite, and (12) sulfate).
# Referring to FIG. 8C, it can be seen that even when the other ionic substances have a concentration at least 500 times higher than the concentration of citrate, the citrate detection sensor is reactive selectively with citrate without any interference under high sensitivity. In addition, since it is well known that boronate is a diol sensor, selectivity was also determined for the other materials having a diol moiety, such as hydrogen peroxide (H2O2), glucose, fructose, sucrose, dopamine species, or the like. […] Although the two analytes undergo a reaction in response to the fluorescence intensity, it can be seen that citrate emits green fluorescence and H2O2 emits blue fluorescence. Thus, it can be seen that since only citrate emits green fluorescence in a biological sample at a concentration of ‘μM’ scale, it is possible to detect citrate with ease by the naked eyes through the citrate detection sensor.
# [4] = Fluorescence intensity as a function of time and pH in the presence of citrate; format: physicochemical
# Experimental: Meanwhile, FIG. 6A to FIG. 6C show a graph illustrating a change in fluorescence intensity of the citrate detection sensor as a function of time in the presence of different concentrations of citrate (0-0.9 μM), a graph illustrating fluorescence emission intensity of ARBD and citrate at different pH values and a fluorescence image thereof, respectively.
# When optimizing the determination condition in FIG. 6A, it can be seen that the maximum value of fluorescence intensity is accomplished within about 15 minutes. […] Thus, it can be seen that when citrate is introduced to the citrate detection sensor, fluorescence enhancement may be varied with pH.
# [5] = High-sensitivity detection of citrate (UV-Vis absorption and fluorescence titration); conditions: pH 7.4, 10 mM HEPES (2 vol % DMSO)
# Experimental: The initial citrate tracking ability of the citrate detection sensor including ARBD was evaluated by using UV-Vis absorption spectrometry using ARBD at pH 7.4 in the presence of 10 mM of HEPES buffer solution (2 vol % DMSO). Referring to FIG. 7A to FIG. 7C, it is possible to determine a change in fluorescence spectrum of ARBD when adding citrate at a concentration increasing linearly. […] The absorption intensity at 346 nm is decreased whenever citrate is added and a new peak position appears at 400 nm. In addition, as shown in FIG. 7A to FIG. 7C, it can be seen that an increase in concentration of citrate affects both the fluorescence intensity and the fluorescence wavelength. Further, it can be seen that when the concentration of citrate is increased from 0 to 800 nM for the citrate detection sensor including 2 μM of ARBD at pH 7.4 in the presence of 10 mM of HEPES buffer solution (2 vol % DMSO), the maximum fluorescence intensity is increased linearly to 548 nm. It can be also seen that when the concentration of citrate is increased to 950 nM, the peak at 548 nm is increased linearly while causing no change in wavelength.
smiles,measurement,setting,value
"CC1(C)OB(c2ccc(-c3nc(-c4ccc(-c5nc(-c6ccccc6)c(-c6ccccc6)[nH]5)cc4)no3)cc2)OC1(C)C [ARBD, 5-(4-(4,4,5,5-tetramethyl-1,3,2-dioxaborolan-2-yl)phenyl)-3-(4-(4,5-diphenyl-1H-imidazol-2-yl)phenyl)-1,2,4-oxadiazole]",k (reaction rate constant),[1],0.148 min⁻¹
same,Fluorescence quantum yield,[2],0.18
same,Maximum absorption wavelength (λabs),[2],352
same,Maximum emission wavelength (λemiss),[2],458
same,fluorescence emission wavelength,"[2]; citrate added, 2 μM ARBD, 10 mM HEPES buffer (2 vol % DMSO), pH 7.4, strong fluorescence, color change blue to green",548 nm
same,fluorescence emission wavelength,"[2]; sensor not subjected to reaction with citrate, weak (blue) fluorescence",458 nm
same,fluorescence in cells after adding citrate,PC3 cells,reacts with citrate to express a green color
same,selectivity: fluorescence enhancement by citrate versus other ions,"[3]; 1 μM citrate, 0.5 mM fumarate, benzoate, glutamate, succinate, malonate, oxalate, acetate, phosphate, sulfite, sulfate",only citrate can induce fluorescence enhancement
same,selectivity versus materials having a diol moiety,"[3]; H2O2, glucose, fructose, sucrose, dopamine species, citrate emits green, H2O2 blue fluorescence",reacts only with citrate and hydrogen peroxide
same,interference of other ionic compounds with detection of citrate,[3]; other species at least 500 times higher concentration than citrate,no effect upon the detection of citrate
same,pH of highest and stable fluorescence intensity,[4]; ARBD and citrate at different pH values,7-8 pH
same,time to maximum value of fluorescence intensity,[4]; citrate 0-0.9 μM,≤ 15 min
same,stability of fluorescence intensity after reaction with citrate,"[4]; citrate 0-0.9 μM, whole concentration range",maintained constantly to 60 minutes
same,detection limit for citrate,"[5]; S/N=3, 2 μM ARBD",10 nM
same,new absorption peak position on addition of citrate,[5]; citrate 0 to 12 μM,400 nm
same,absorption peak,"[5]; initial stage, no citrate",346 nm
